IC50 data for 25 compounds are collected here from patent US11564928B1, “Cannabinoid receptor type 2 (CB2) modulators and uses thereof” (Teon Therapeutics, Inc., priority 2020, dated 2023).

Where two headings read alike, the source gives them in different places.

The target of one experiment is human CB2 receptor (Homo sapiens (Human), UniProt P34972). In words: CB2 receptor binding assay ([3H]CP-55,940 displacement, HEK-293 membranes).
A further experiment deals with human recombinant CB1R (Homo sapiens (Human), UniProt P21554). In words: CB1 receptor binding assay ([3H]CP-55,940 displacement, HEK-293 membranes). In a few lines: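 Membranes from HEK-293 cells expressing human recombinant CB1R or CB2R were incubated with [3H]CP-55,940 and compound for 120 min at 37 °C in duplicate. The CB2R incubation buffer was 50 mM Tris-HCl, 5 mM MgCl2, 1 mM CaCl2, 0.2% BSA, pH 7.4. Bound radioactivity was filtered and counted, and IC50 was converted to Ki by Cheng–Prusoff.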

The mark [1] stands for this setting: membranes of HEK-293 cells with human recombinant CB2R, [3H]CP-55,940, read-out: CB2 IC50.
Setting [2] is: membranes of HEK-293 cells with human recombinant CB1R, [3H]CP-55,940, read-out: CB1 IC50.
[3] abbreviates: membranes of HEK-293 cells with human recombinant CB1R, [3H]CP-55,940, class symbols, read-out: CB1 IC50.
[4] abbreviates: membranes of HEK-293 cells with human recombinant CB2R, [3H]CP-55,940, class symbols, read-out: CB2 IC50.

Chain of human recombinant CB1R (P21554 whole entry): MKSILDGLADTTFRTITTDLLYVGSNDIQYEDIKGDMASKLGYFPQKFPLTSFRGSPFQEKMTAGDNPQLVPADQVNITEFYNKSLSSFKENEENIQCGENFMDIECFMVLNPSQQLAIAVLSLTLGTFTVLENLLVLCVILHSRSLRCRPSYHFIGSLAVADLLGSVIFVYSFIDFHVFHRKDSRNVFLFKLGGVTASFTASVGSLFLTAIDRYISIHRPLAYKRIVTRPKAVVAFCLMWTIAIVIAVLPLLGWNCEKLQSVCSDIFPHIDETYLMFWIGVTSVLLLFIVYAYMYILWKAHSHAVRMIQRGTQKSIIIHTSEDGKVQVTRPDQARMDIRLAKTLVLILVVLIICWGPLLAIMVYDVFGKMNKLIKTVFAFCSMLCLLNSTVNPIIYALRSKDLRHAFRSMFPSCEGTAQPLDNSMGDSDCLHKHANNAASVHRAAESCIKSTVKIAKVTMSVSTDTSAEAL
Chain of human CB2 receptor (P34972 whole entry): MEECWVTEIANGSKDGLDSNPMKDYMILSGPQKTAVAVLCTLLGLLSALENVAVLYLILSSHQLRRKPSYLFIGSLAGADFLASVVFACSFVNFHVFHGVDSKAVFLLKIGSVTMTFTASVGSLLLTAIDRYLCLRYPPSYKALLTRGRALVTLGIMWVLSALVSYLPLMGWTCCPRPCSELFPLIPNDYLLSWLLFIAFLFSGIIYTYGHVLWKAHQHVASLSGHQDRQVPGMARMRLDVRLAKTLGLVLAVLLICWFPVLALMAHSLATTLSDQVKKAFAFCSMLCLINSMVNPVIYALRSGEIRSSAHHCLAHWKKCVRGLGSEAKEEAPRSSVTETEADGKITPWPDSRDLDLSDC

One may read the IC50 as the concentration that inhibits the measured activity by half. As for `C=C(C)c1cnc2c(c1)cc(C(=O)N[C@H](C)c1ccc(F)cc1)c(=O)n2Cc1ccc(F)cc1` [Compound 88, (R)-1-(4-fluorobenzyl)-N-(1-(4-fluorophenyl)ethyl)-2-oxo-6-(prop-1-en-2-yl)-1,2-dihydro-1,8-naphthyridine-3-carboxamide], the IC50 is 6.7 nM at human CB2 receptor (setting [1]) and greater than 10000 nM on human recombinant CB1R (setting [2]).
For the compound `O=C(NC1CC2(CCC2)C1)c1cc2cc(-c3ccc(F)cc3)cnc2n(CCN2CCOCC2)c1=O` [Compound 32, 6-(4-fluorophenyl)-1-(2-morpholinoethyl)-2-oxo-N-(spiro[3.3]heptan-2-yl)-1,2-dihydro-1,8-naphthyridine-3-carboxamide], the IC50 was 0.8 nM at human CB2 receptor (setting [1]) and 39 nM at human recombinant CB1R (setting [2]).
As to `N#Cc1ccc(-c2cnc3c(c2)c(O)c(C(=O)NC2CC4(CCC4)C2)c(=O)n3CCN2CCOCC2)nc1` [Compound 22, 6-(5-cyanopyridin-2-yl)-4-hydroxy-1-(2-morpholinoethyl)-2-oxo-N-(spiro[3.3]heptan-2-yl)-1,2-dihydro-1,8-naphthyridine-3-carboxamide], the IC50 on human CB2 receptor is 100 to 999 nM; on human recombinant CB1R (setting [3]), greater than 1000 nM.
Take `O=C(NC1CC2(CCC2)C1)c1cc2cc(C3CC3)cnc2n(Cc2ccc(F)cc2)c1=O` [Compound 93, 6-cyclopropyl-1-(4-fluorobenzyl)-2-oxo-N-(spiro[3.3]heptan-2-yl)-1,2-dihydro-1,8-naphthyridine-3-carboxamide]: the figures for the IC50 at human CB2 receptor (setting [1]) and on human recombinant CB1R (setting [2]) were 3.6 nM and greater than 10000 nM, respectively.
`O=C(NC1CC2(CCC2)C1)c1cc2cc(-c3ccccn3)cnc2n(CCN2CCOCC2)c1=O` [Compound 34, 1-(2-morpholinoethyl)-2-oxo-6-(pyridin-2-yl)-N-(spiro[3.3]heptan-2-yl)-1,2-dihydro-1,8-naphthyridine-3-carboxamide]: the 50% inhibitory concentration (IC50) on human CB2 receptor (setting [1]) came to 1 nM; on human recombinant CB1R (setting [2]), 184 nM.
For `CC(NC(=O)c1c(O)c2cc(-c3ccc(C#N)cn3)cnc2n(CCN2CCOCC2)c1=O)c1ccc(F)cc1` (centres unmarked) [Compound 21, 6-(5-cyanopyridin-2-yl)-N-(1-(4-fluorophenyl)ethyl)-4-hydroxy-1-(2-morpholinoethyl)-2-oxo-1,2-dihydro-1,8-naphthyridine-3-carboxamide], the IC50 on human CB2 receptor is 100 to 999 nM; at human recombinant CB1R (setting [3]), greater than 1000 nM.
Consider `O=C(NC12CC(C1)C2)c1c(O)c2cc(-c3ccc(F)cc3)cnc2n(Cc2ccc(F)cn2)c1=O` [Compound 131, N-(bicyclo[1.1.1]pentan-1-yl)-6-(4-fluorophenyl)-1-((5-fluoropyridin-2-yl)methyl)-4-hydroxy-2-oxo-1,2-dihydro-1,8-naphthyridine-3-carboxamide], for which the IC50 on human CB2 receptor (setting [4]) and on human recombinant CB1R (setting [3]) was greater than 1000 nM throughout.
Regarding `COC(=O)C(C)(C)NC(=O)c1c(O)c2cc(-c3ccc(F)cc3)cnc2n(CCN2CCOCC2)c1=O` [Compound 119, methyl 2-(6-(4-fluorophenyl)-4-hydroxy-1-(2-morpholinoethyl)-2-oxo-1,2-dihydro-1,8-naphthyridine-3-carboxamido)-2-methylpropanoate], the values for the 50% inhibitory concentration (IC50) at human CB2 receptor and at human recombinant CB1R (setting [3]) were 100 to 999 nM and greater than 1000 nM, respectively.
Consider `CC12CC(NC(=O)c3c(O)c4cc(-c5ccc(F)cc5)cnc4n(CCN4CCOCC4)c3=O)(C1)C2` [Compound 110, 6-(4-fluorophenyl)-4-hydroxy-N-(3-methylbicyclo[1.1.1]pentan-1-yl)-1-(2-morpholinoethyl)-2-oxo-1,2-dihydro-1,8-naphthyridine-3-carboxamide], for which the half-inhibitory concentration (IC50) at human CB2 receptor and on human recombinant CB1R was 100 to 999 nM each time.
On to `COc1ccc(-c2cnc3c(c2)c(C)c(C(=O)NC(C)c2ccc(F)cc2)c(=O)n3CCN2CCOCC2)cc1` (centres unmarked) [Compound 75, N-(1-(4-fluorophenyl)ethyl)-6-(4-methoxyphenyl)-4-methyl-1-(2-morpholinoethyl)-2-oxo-1,2-dihydro-1,8-naphthyridine-3-carboxamide], for which the IC50 at human CB2 receptor (setting [4]) and at human recombinant CB1R (setting [3]) was greater than 1000 nM throughout.
In the case of `CC(C)(CO)NC(=O)c1c(O)c2cccnc2n(Cc2ccc(F)cc2)c1=O` [Compound 140, 1-[(4-fluorophenyl)methyl]-4-hydroxy-N-(2-hydroxy-1,1-dimethyl-ethyl)-2-oxo-1,8-naphthyridine-3-carboxamide], the IC50 at human CB2 receptor is 100 to 999 nM; on human recombinant CB1R (setting [3]), greater than 1000 nM.
As to `O=C(NC12CC(C1)C2)c1cc2cc(-c3ccc(OC(F)F)cc3)cnc2n(CCN2CCOCC2)c1=O` [Compound 54, N-(bicyclo[1.1.1]pentan-1-yl)-6-(4-(difluoromethoxy)phenyl)-1-(2-morpholinoethyl)-2-oxo-1,2-dihydro-1,8-naphthyridine-3-carboxamide], the IC50 at human CB2 receptor (setting [4]) is less than 100 nM; on human recombinant CB1R (setting [3]), greater than 1000 nM.
With `CC(C)Oc1ccc(-c2cnc3c(c2)cc(C(=O)NC2CC4(CCC4)C2)c(=O)n3Cc2ccc(F)cc2)cc1` [Compound 66, 6-(4-isopropoxyphenyl)-1-(4-fluorobenzyl)-2-oxo-N-(spiro[3.3]heptan-2-yl)-1,2-dihydro-1,8-naphthyridine-3-carboxamide], the IC50 on human CB2 receptor (setting [4]) and at human recombinant CB1R (setting [3]) was greater than 1000 nM in each case.
Consider `O=C(NC1CC2(CCC2)C1)c1cc2cc(-c3ccc(F)cc3)cnc2n(Cc2cccnc2)c1=O` [Compound 97, 6-(4-fluorophenyl)-2-oxo-1-(pyridin-3-ylmethyl)-N-(spiro[3.3]heptan-2-yl)-1,2-dihydro-1,8-naphthyridine-3-carboxamide], for which the IC50 is less than 100 nM at human CB2 receptor (setting [4]) and greater than 1000 nM on human recombinant CB1R (setting [3]).
As to `O=C(NC1CC2(CCC2)C1)c1cc2cc(-c3ncccn3)cnc2n(CCN2CCOCC2)c1=O` [Compound 38, 1-(2-morpholinoethyl)-2-oxo-6-(pyrimidin-2-yl)-N-(spiro[3.3]heptan-2-yl)-1,2-dihydro-1,8-naphthyridine-3-carboxamide], the IC50 was less than 100 nM on human CB2 receptor (setting [4]) and 100 to 999 nM on human recombinant CB1R.
As to `COc1ccc(-c2cnc3c(c2)cc(C(=O)NC2CCC(C)(C)CC2)c(=O)n3CCN2CCOCC2)cc1` [Compound 26, N-(4,4-dimethylcyclohexyl)-6-(4-methoxyphenyl)-1-(2-morpholinoethyl)-2-oxo-1,2-dihydro-1,8-naphthyridine-3-carboxamide], the IC50 is 2.2 nM on human CB2 receptor (setting [1]) and greater than 10000 nM on human recombinant CB1R (setting [2]).
As for `CC(C)c1cnc2c(c1)cc(C(=O)N[C@H](C)c1ccc(C#N)cc1)c(=O)n2Cc1ccc(F)cn1` [Compound 108, (R)—N-(1-(4-cyanophenyl)ethyl)-1-((5-fluoropyridin-2-yl)methyl)-6-isopropyl-2-oxo-1,2-dihydro-1,8-naphthyridine-3-carboxamide], the half-maximal inhibitory concentration (IC50) is 100 to 999 nM on human CB2 receptor and greater than 1000 nM on human recombinant CB1R (setting [3]).
In the case of `COc1ccc(-c2ccc3c(c2)c(O)c(C(=O)N[C@H]2CC[C@@H](C)CC2)c(=O)n3CCN2CCOCC2)cc1` [Compound 161, 4-hydroxy-6-(4-methoxyphenyl)-N-((1s,4S)-4-methylcyclohexyl)-1-(2-morpholinoethyl)-2-oxo-1,2-dihydroquinoline-3-carboxamide], the IC50 on human CB2 receptor (setting [4]) was less than 100 nM; at human recombinant CB1R (setting [3]) it was greater than 1000 nM.
With `COc1ccc(-c2cnc3c(c2)c(C)c(C(=O)NC2CCC(C)CC2)c(=O)n3CCN2CCOCC2)cc1` (centres unmarked) [Compound 73, 6-(4-methoxyphenyl)-4-methyl-N-(4-methylcyclohexyl)-1-(2-morpholinoethyl)-2-oxo-1,2-dihydro-1,8-naphthyridine-3-carboxamide], the IC50 was 100 to 999 nM at human CB2 receptor and greater than 1000 nM at human recombinant CB1R (setting [3]).
Taken in the same sequence, the figures for `CS(=O)(=O)c1ccc(-c2cnc3c(c2)cc(C(=O)NC2CC4(CCC4)C2)c(=O)n3Cc2ccc(F)cc2)cc1` [Compound 68, 1-(4-fluorobenzyl)-6-(4-(methylsulfonyl)phenyl)-2-oxo-N-(spiro[3.3]heptan-2-yl)-1,2-dihydro-1,8-naphthyridine-3-carboxamide] were 100 to 999 nM and greater than 1000 nM.
Consider `O=C(NC12CC(C1)C2)c1c(O)c2cccnc2n(Cc2ccc(F)cc2)c1=O` [Compound 139, N-(1-bicyclo[1.1.1]pentanyl)-1-[(4-fluorophenyl)methyl]-4-hydroxy-2-oxo-1,8-naphthyridine-3-carboxamide], for which the IC50 on human CB2 receptor (setting [4]) and at human recombinant CB1R (setting [3]) was greater than 1000 nM in each case.
With `CC(C)(NC(=O)c1c(O)c2cc(-c3ccc(F)cc3)cnc2n(CCN2CCOCC2)c1=O)C(=O)O` [Compound 120, 2-(6-(4-fluorophenyl)-4-hydroxy-1-(2-morpholinoethyl)-2-oxo-1,2-dihydro-1,8-naphthyridine-3-carboxamido)-2-methylpropanoic acid], the IC50 on human CB2 receptor (setting [4]) and on human recombinant CB1R (setting [3]) was greater than 1000 nM in each case.
As for `O=C(NC12CC(C1)C2)c1c(O)c2cc(-c3ccc(F)cc3)cnc2n(Cc2cccnc2)c1=O` [Compound 130, N-(bicyclo[1.1.1]pentan-1-yl)-6-(4-fluorophenyl)-4-hydroxy-2-oxo-1-(pyridin-3-ylmethyl)-1,2-dihydro-1,8-naphthyridine-3-carboxamide], the IC50 on human CB2 receptor (setting [4]) and at human recombinant CB1R (setting [3]) was greater than 1000 nM throughout.
Regarding `COc1ccc(-c2cnc3c(c2)c(O)c(C(=O)N[C@@H](C)c2ccc(F)cc2)c(=O)n3CCN2CCOCC2)cc1` [Compound 151, (S)—N-(1-(4-fluorophenyl)ethyl)-4-hydroxy-6-(4-methoxyphenyl)-1-(2-morpholinoethyl)-2-oxo-1,2-dihydro-1,8-naphthyridine-3-carboxamide], the IC50 on human CB2 receptor (setting [4]) and on human recombinant CB1R (setting [3]) was greater than 1000 nM throughout.
With `O=C(NC12CC(C1)C2)c1c(O)c2nccnc2n(CCN2CCOCC2)c1=O` [Compound 146, N-(bicyclo[1.1.1]pentan-1-yl)-8-hydroxy-5-(2-morpholinoethyl)-6-oxo-5,6-dihydropyrido[2,3-b]pyrazine-7-carboxamide], the half-maximal inhibitory concentration (IC50) at human CB2 receptor (setting [4]) and at human recombinant CB1R (setting [3]) was greater than 1000 nM in each case.
